Consider 4 compounds from US4018753A, “Polypeptides with ACTH-like activities” (Shionogi & Co., Ltd., priority 1974, dated 1977).

Square brackets hold non-standard residues; d marks the D form. Ends that are not written are not given here. Peptide text beside a SMILES is read from it. Aib = CC(C)(N)C(=O)O

Assay [1] concerns melanocyte. As to the kind of experiment: In vivo melanocyte-stimulating activity. The following applies: relative potency. On the procedure:
The in vivo melanocyte-stimulating activity was determined according to the method described in Endocrinol. Japonica 19, 383 (1972).

Assay [2] has as its system hypophysectomized rat. As to the kind of experiment: Adrenal-stimulating activity by intramuscular administration to hypophysectomized rat. It counts as in vivo. The following applies: relative potency; USP Corticotropin Reference Standard; injected into thigh muscle, blood sample 30 minutes after injection, 11-hydroxycorticosteroids. As for the experimental part: (§1) Assays for adrenal-stimulating activity of the present polypeptides were carried out according to the different methods, comparing with that of native corticotropin (ACTH), [Gly^1 ]-ACTH(1-18)-NH2 [Bull.Chem.Soc.Japan 43 196 (1970)], [Aib^1 ]-ACTH(1-18)-NH2 [ibid., 43, 3873 (1970)], [Aib^1,Lys^17,18 ]-ACTH(1-18)-NH2, Cortrosyn^R (N.V.Organon, Netherland) and Cortrosyn-Z (N.V.Organon, Netherland). The adrenal-stimulating activity by the intravenous administration to hypophysectomized rat was determined in such a manner that a peptide preparation was injected into the femoral vein and a blood sample was collected from the abdominal aorta 30 minutes after the injection. The adrenal-stimulating activity by the intramuscular administration to hypophysectomized rat was also determined, where a peptide preparation was injected into the thigh muscle and a blood sample was collected from the abdominal aorta 30 minutes after injection. Throughout the experiment, the USP Corticotropin Reference Standard was used as a standard and the production of 11-hydroxycorticosteroids was determined by the fluorophotometric method of Peterson [J.Biol. Chem. 225 25 (1957)]. For each assay method several determinations were usually performed and the data obtained independently were submitted to the statistical treatment by Sheps and Moore procedure [J.Pharmacol. Extl. Therap. 128, 99 (1960)].

Assay [3] has as its system hypophysectomized rat. The experiment in a line: Adrenal-stimulating activity by intravenous administration to hypophysectomized rat. The settings on record: relative potency; USP Corticotropin Reference Standard; injected into femoral vein, blood sample 30 minutes after injection, 11-hydroxycorticosteroids. The format is in vivo. As for the experimental part: as §1
The subject of assay [4] is rats. As to the kind of experiment: Effect on adrenal growth and thymus involution. The format is in vivo. Also noted: key: *: The effects on adrenal growth and thymus involution are very weak. The following applies: i.m. 20 μg and 100 μg/rat/day for 2 days. As for the experimental part: The effect on adrenal growth and thymus involution was determined in the following manner: peptides were intramuscularly injected into rats at a dose of 20 μg and 100 μg/rat/day respectively for 2 days. The rats were then submitted to autopsy 24 hours after the last injection, and then the adrenal and thymus were weighed respectively.

Where [5] appears, read: relative potency, autopsy 24 hours after last injection, adrenal and thymus weighed.

As to `CSCC[C@H](NC(=O)[C@H](CO)NC(=O)[C@H](Cc1ccc(O)cc1)NC(=O)C(C)(C)N)C(=O)N[C@@H](CCC(=O)O)C(=O)N[C@@H](Cc1c[nH]cn1)C(=O)N[C@@H](Cc1ccccc1)C(=O)N[C@@H](CCCNC(=N)N)C(=O)N[C@@H](Cc1c[nH]c2ccccc12)C(=O)NCC(=O)N[C@@H](CCCCN)C(=O)N1CCC[C@H]1C(=O)N[C@H](C(=O)NCC(=O)N[C@@H](CCCCN)C(=O)N[C@@H](CCCCN)C(=O)N[C@@H](CCCCN)C(=O)N[C@@H](CCCCN)C(N)=O)C(C)C` [[Aib^1,Lys^17,18]ACTH(1-18)NH2, [Aib^1,Lys^17,18]-ACTH(1-18)-NH2] (H-[Aib]YSMEHFRWGKPVGKKKK-NH2), the “Melanocyte-stimulating activity b) in vivo” value in assay [1] amounted to 0.82. Further, the Adrenal-stimulating activity i.m. in assay [2] is 9.4. For the same compound, the Adrenal-stimulating activity i.v. in assay [3] was 9.3. For the same compound, the “effect on adrenal growth and thymus involution a)” value (shortened to “effect”) in assay [4] (setting [5]) is recorded as 0.40.
The corresponding values for `CSCC[C@H](NC(=O)[C@H](CO)NC(=O)[C@H](Cc1ccc(O)cc1)NC(=O)C(C)(C)N)C(=O)N[C@@H](CCC(=O)O)C(=O)N[C@@H](Cc1c[nH]cn1)C(=O)N[C@@H](Cc1ccccc1)C(=O)N[C@@H](CCCNC(=N)N)C(=O)N[C@@H](Cc1c[nH]c2ccccc12)C(=O)NCC(=O)N[C@@H](CCCCN)C(=O)N1CCC[C@H]1C(=O)N[C@H](C(=O)NCC(=O)N[C@@H](CCCCN)C(=O)N[C@@H](CCCCN)C(=O)N[C@@H](CCCNC(=N)N)C(=O)N[C@@H](CCCNC(=N)N)C(N)=O)C(C)C` [[Aib^1]ACTH(1-18)NH2, [Aib^1]-ACTH(1-18)-NH2] (H-[Aib]YSMEHFRWGKPVGKKRR-NH2) are 1.00, 9.9, 4.1 and 0.12.
As to “GYSMEHFRWGKPVGKKRR-NH2 [[Gly^1]ACTH(1-18)NH2, [Gly^1]-ACTH(1-18)-NH2]”, the “Melanocyte-stimulating activity b) in vivo” value in assay [1] amounted to 0.11. In addition, the Adrenal-stimulating activity i.m. in assay [2] stood at 1.0. Further, the Adrenal-stimulating activity i.v. in assay [3] was found to be 1.0. Moreover, the results for the “effect” value in assay [4] (setting [5]) and in assay [4] (symbol * in the table) were “very weak” and “*”, respectively.
The compound “Native ACTH: native corticotropin (ACTH) (SYSMEHFRWGKPVGKKRRPVKVYPNGAEDESAEAFPLEF; Corticotropin; UniProt P01189 138-176, looked up)” registered an Adrenal-stimulating activity i.m. in assay [2] of 4.0. This compound displayed an Adrenal-stimulating activity i.v. in assay [3] of 1.0. The figures for the “effect” value in assay [4] (setting [5]) and in assay [4] (symbol * in the table) were “very weak” and “*”, respectively.
